Assay [1] concerns Aβ. Particulars: rats; cited from earlier work.
A further assay deals with tau or neurofilament. Particulars: induced by wortmannin, calyculin A, okadaic acid; N2a and SH-SY5Y cells; cited from earlier work.
The subject of the next assay is mitochondrial function. Particulars: Alzheimer's mice; cited from earlier work.
Assay [2] deals with Aβ. The conditions noted are these: frontal cortex; transgenic mice; cited from earlier work.
The test system of assay [3] is Aβ. Particulars: rat model of sporadic AD; cited from earlier work.
Assay [4] deals with Aβ aggregation. The conditions noted are these: neuronal cells; cited from earlier work.
For assay [5], the system named is Aβ. The conditions noted are these: entorhinal cortex and hippocampus; transgenic mice model of AD; cited from earlier work.
The subject of assay [6] is Aβ aggregation. Particulars: PC12 cells study; cited from earlier work.
In a further assay the test system is GSK-3β phosphorylation. Particulars: melatonin 100 μM at the cellular level; cited from earlier work.
The next assay has as its system AβPP. The conditions noted are these: transgenic model of AD; cited from earlier work.
Assay [7] has as its system Aβ. The conditions noted are these: transgenic model of AD; cited from earlier work.
The subject of assay [8] is Aβ in neuroblastoma cells. Particulars: cited from earlier work.
Another assay relates to Aβ in N2A cells. The conditions noted are these: cited from earlier work.
Assay [9] concerns mitochondrial complexes I and IV. Particulars: in vivo; cited from earlier work.
Assay [10] has as its system hepatic mitochondrial DNA. The conditions noted are these: mice; cited from earlier work.
A further assay deals with Aβ1-41. Particulars: transgenic mice; cited from earlier work.
The subject of a further assay is Aβ in N2a/AβPPswe cells. In words: Sandwich ELISA of Aβ in N2a/AβPPswe cells treated with THC and CB1 inhibitor rimonabant. The class given is cell-based, human. Here is the method: The mechanism of action was elucidated for THC's effect on Aβ levels using a sandwich ELISA assay. N2a/AβPPswe cells, as discussed in Example 1, were suspended to 2×10^5/mL, 3 mL plated into each well, and grown in DMEM with 10% fetal bovine serum, 100 U/mL penicillin, 100 μg/mL streptomycin, and 400 μg/mL G418 (Invitrogen), at 37° C. in the presence of 5% CO2. N2a/AβPPswe cells were subcultured using trypsin, and pipetted numerous times to ensure cells were separated into individual cells. Cells were counted, as provided in Example 1, and proper amount of cell medium and fresh medium was added into new flasks according to the ratio of dilution. Pipetting was performed 10 times to homogenize cells, and 3 mL of cells were seeded into medium into each 6 well plate. When one pipette was used up, the cells were mixed in the flask before using them for the next pipette. Compounds were suspended in DMSO.
12 hours after cells were plated, cells were treated with 25 nM of Δ9-THC (T4764-1ML Sigma Aldrich, Merck KGaA; Darmstadt, Germany), with the known inhibitor of the CB1 receptor, rimonabant, at 0 μM, 100 μM, 10 μM, 1 μM, or 0.1 μM rimonabant. Untreated N2a/AβPPswe cells were used as a control. Treatment was then washed out, i.e. the medium was then removed from the cultures and 3 mL of media containing the treatment compounds were added. Cells were collected at 12 hours afterwards, 48 hours afterwards, 60 hours afterwards, and 72 hours afterwards, and ELISA was conducted on the cells.
ELISA assay was performed on the cells using 50 μL of goat anti-PWT1-42 antibody solution, which was incubated overnight, followed by a 1-hour incubation with 0.1% I-block buffer. The tissue culture supernatant was diluted 1:10 with diluent buffer containing a protease inhibitor. Standards were prepared by serial dilution, as provided in Example 1. The plate was washed and 50 μL of sample or standard was added with triplication. 50 μL of both Biosource 40/42 (HS) (primary antibody) Aβ and a standard solution was added to each well and incubated for 3 hours followed by 5× wash with PBST. […]
(In an ELISA, binding on a coated surface is turned into a signal by an enzyme label.)

The subject of assay [11] is Aβ40 in N2a/AβPPswe cells. Put plainly: Aβ40 ELISA of N2a/AβPPswe cells treated with THC or caffeine. Particulars: THC 0.25-2500 nM or caffeine 0.625-10 μM. It counts as cell-based, human.
Assay [12] relates to Aβ. The conditions noted are these: cited from earlier work.
The subject of assay [13] is tau protein in PC12 cells. The conditions noted are these: cited from earlier work.

Read-outs that look alike come from different tables or passages of the source.

As to `COc1ccc2[nH]cc(CCNC(C)=O)c2c1` [melatonin], in the assay with Aβ [1], the “Hippocampal Aβ generation” value is “reduced hippocampal Aβ generation”. For the same compound, the “Tau or neurofilament hyperphosphorylation” value with tau or neurofilament is reported as “efficiently attenuates tau or neurofilament hyperphosphorylation”. In addition, in the assay on mitochondrial function, the Mitochondrial function result is “restores mitochondrial function”. For the same compound, the Aβ levels entry is on record as “reduces Aβ levels” in the assay with Aβ [2], “reduction in Aβ levels” in the assay on Aβ [7], “reduction of Aβ levels” in assay [8] and “reduced Aβ levels” in the assay with Aβ in N2A cells. For the same compound, in the assay on Aβ [3], the Aβ accumulation entry is reported as “attenuates Aβ accumulation”. The Aβ aggregation entry with Aβ aggregation [4] is “reduced Aβ aggregation”; in the assay with Aβ aggregation [6], “prevents Aβ aggregation”. For the same compound, in the assay on Aβ [5], the “Aggregation of Aβ” value is recorded as “decreased the aggregation of Aβ”. In addition, in the assay with GSK-3β phosphorylation, the “Decreased GSK-3β phosphorylation” value is “about 40%”. The AβPP levels result in the assay on AβPP is recorded as “no change in AβPP levels”. In addition, the “Inhibition of mitochondrial complexes I and IV induced by ruthenium red” value in assay [9] was “prevented the inhibition of mitochondrial complexes I and IV”. In assay [10], the “Ethanol-induced hepatic mitochondrial DNA depletion” value was “protects against ethanol-induced hepatic mitochondrial DNA depletion”. Also, the Aβ1-41 levels entry in the assay with Aβ1-41 was “decreased Aβ1-41 levels”.
As for `Cc1c(C(=O)NN2CCCCC2)nn(-c2ccc(Cl)cc2Cl)c1-c1ccc(Cl)cc1` [rimonabant], the “Block of THC's Aβ lowering by CB1 antagonist” value is listed as “partially blocked” in the assay on Aβ in N2a/AβPPswe cells (antagonist at 10^−4 M with 25 nM THC) and “inhibition function is lost” with Aβ in N2a/AβPPswe cells (antagonist at 10^−7 M with 25 nM THC).
For the compound `Cn1c(=O)c2c(ncn2C)n(C)c1=O` [caffeine], the “Aβ40 levels versus control” value is “significant reduction” in [11] (6 hours, FIG. 1A); “exponential drop” in [11] (24 hours, FIG. 1B); “significant difference” in assay [11] (48 hours, FIG. 1C). The “Serum Aβ40 levels” value in the assay with Aβ [12] (mouse model) is listed as “lower serum Aβ40 levels”. In addition, the “Brain Aβ levels” value in the assay on Aβ [12] (transgenic mouse model) is recorded as “lowering brain Aβ levels”.
As to `C=C(C)[C@@H]1CCC(C)=C[C@H]1c1c(O)cc(CCCCC)cc1O` [Cannabidiol], the “β-amyloid-induced tau protein hyperphosphorylation” value in [13] is “inhibits β-amyloid-induced tau protein hyperphosphorylation”.

The record behind these values is patent publication US11446276B2, “Extreme low dose THC as a therapeutic and prophylactic agent for Alzheimer's disease” (University of South Florida, priority 2015, dated 2022).
